Assay results reported in patent US9340506B2, “Acetamide derivatives as glucokinase activators, their process and medicinal applications” (ADVINUS THERAPEUTICS LIMITED, priority 2007, dated 2016).

Experiments:
[1] = tested on: primary rat hepatocytes; experiment: Glycogen synthesis in primary rat hepatocytes; type: cell-based; conditions: Hepatocyte, 10 μM concentration, primary hepatocytes from male Wistar rats, D-[U14C]-glucose, 3 hours, read-out: Glycogen synthesis, fold increase over DMSO control
Description: The glycogen deposition assay was carried out with few modifications in the original protocol as described in “Biochem J. 1990 Feb. 15; 266(1): 91-102”. In brief, primary hepatocytes were collected from male Wistar rats, and were seeded in a 48-well plate at a density of 150,000 cells/well in Minimal Essential Medium (MEM) containing 10% foetal calf serum (FCS) 100 nM insulin and 10 nM dexamethasone. followed by incubation for 4 hours at 37° C. The medium was replaced with fresh MEM containing 10% FCS and 10 nM dexamethasone and the cells were further incubated for 16 hours at 37° C. Following day, the medium was replaced with fresh MEM (serum-free) containing 2 μCi/ml of D-[U^14C]-glucose in the presence of the test compound. Hepatocytes were incubated for 3 hours at 37° C. followed by washing with 150 mM NaCl. Cells were lysed with 0.1 N NaOH, and the lysate was precipitated with 80% w/v trichloroacetic acid (TCA). Cell debris was pelleted by centrifugation, the supernatant was removed, and the glycogen was precipitated with 66% ethanol followed by drying overnight. Samples were dissolved in MiliQ water and transferred to 96 well reading plate, 100 μL scintillant was added per well and the plate was read in scintillation counter (MicroBeta Trilux, Perkin Elmer). Data was expressed as fold increase in glycogen synthesis over DMSO control (untreated hepatocytes).

[2] = target: purified human recombinant GK (Homo sapiens (Human), UniProt P35557); experiment: Glucokinase activity assay (coupled enzymatic, G6PD/NADH absorbance at 340 nm); type: biochemical; conditions: for EC50: EC50 of % change in S0.5 of glucokinase for glucose, sigmoidal fit, read-out: EC50 (with respect to % ΔS0.5); for Emax: Emax of % change in S0.5 of glucokinase for glucose, vehicle S0.5 = 0%, 0 mM glucose = 100%, read-out: % Emax (with respect to % ΔS0.5)
Sequence of purified human recombinant GK (P35557 whole entry): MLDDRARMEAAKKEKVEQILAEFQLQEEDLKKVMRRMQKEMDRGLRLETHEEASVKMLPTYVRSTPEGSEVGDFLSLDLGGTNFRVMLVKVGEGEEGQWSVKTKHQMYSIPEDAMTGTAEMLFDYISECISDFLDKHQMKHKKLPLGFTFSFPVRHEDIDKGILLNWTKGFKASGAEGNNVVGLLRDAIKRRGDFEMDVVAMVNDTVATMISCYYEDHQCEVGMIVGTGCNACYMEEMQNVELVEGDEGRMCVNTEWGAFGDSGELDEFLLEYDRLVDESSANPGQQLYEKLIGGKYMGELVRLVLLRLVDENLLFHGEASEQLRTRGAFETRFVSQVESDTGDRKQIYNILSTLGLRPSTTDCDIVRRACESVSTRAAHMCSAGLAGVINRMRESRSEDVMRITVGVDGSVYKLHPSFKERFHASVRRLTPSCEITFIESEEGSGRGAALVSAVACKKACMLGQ
Text: The glucokinase (GK) assay is a coupled enzymatic assay. GK catalyzes the first step of glycolysis, the conversion of glucose to glucose-6-phosphate (G6P) in the presence of ATP. G6P in turn is converted by glucose-6-phosphate dehydrogenase (G6PD) to 6-phosphogluconate, a process that requires NAD, resulting in NADH formation. Since the GK-catalyzed step is the rate-limiting step of this coupled enzymatic process, the rate of accumulation of 6-phosphogluconate and NADH is directly proportional to the rate of glucose phosphorylation by GK. The rate of the GK-catalyzed reaction can therefore be measured by monitoring the increase in NADH absorbance at 340 nm.
The assay is carried out according to the protocol outlined in Hariharan et al (1997), Diabetes 46: 11-16. Briefly, the test compounds are incubated in a reaction mix containing 25 mM HEPES (pH 7.2), 10 mM MgCl2, 100 mM KCl, 5 mM ATP, 2 mM DTT, 0.5 mM NAD, 1 U/mL Leuconostoc mesenteroides G6PD, 0.3 U/mL of purified human recombinant GK, and different concentrations of glucose. Enzymatic activity is calculated from the initial reaction velocity, measured from the change in NADH absorbance as a function of time.
Compounds described in formula (I), in concentration ranges from 1.0 nM to 500 μM, are tested in the purified human recombinant glucokinase assay described above.
A compound is considered to be a glucokinase activator if it, in its testable range of concentrations, yields a higher rate of glucose phosphorylation than in its absence at a particular glucose concentration, for example at 5 mM glucose.
Compounds of general formula (I) are tested in the in vitro GK enzymatic assay to monitor dose-dependent effect on glucokinase activation (in kinetic mode), as described above, at various glucose concentrations. The S0.5 of glucokinase for glucose at different concentration of each compound of interest is calculated from the following modified version of the Michaelis-Menten equation, V=Vmax [S]^n/(S0.5^n+[S]^n), where [S] is the glucose concentration and n is the Hill coefficient (taken as 1.7 to account for the sigoidal kinetics of glucokinase with respect to glucose). The S0.5 is plotted against the log of the compound concentration. The change in the S0.5 of glucokinase (ΔS0.5) for glucose is calculated by subtracting the S0.5 at each concentration of the compound from the S0.5 in the vehicle control. The ΔS0.5 is then normalized to a percent scale, where the S0.5 in the vehicle control is set to 0% and 0 mM glucose is set to 100%. The % ΔS0.5 is then plotted against the log of the compound concentration. The EC50 and Emax of % change in S0.5 is obtained from the sigoidal fit of the data. Detailed protocol has been described in our copending application no. 409/CHE/2007 which is incorporated herein by reference. Characterization data of some representative glucokinase activators of the present disclosure, which are illustrative but not limiting, are given in table I below.

[3] = animal efficacy models; PSN-GK1 at higher dose; cited from earlier work

Molecule	fold induction at 10 µM [1]	EC50 [2]	Emax [2]	Hypoglycemia in animal studies [3]
Cc1cc(Oc2cnc(NC(=O)C(OC3CCOCC3)c3ccc(S(=O)(=O)C4CC4)cc3)s2)ccc1C(=O)O (single isomer, unassigned; (+)) [Example G1A, (+)4-[2-[[2-(4-cyclopropylsulfonylphenyl)-2-tetrahydropyran-4-yloxy-acetyl]amino]thiazol-5-yl]oxy-2-methyl-benzoic acid]	> 2.5	0.087 µM	97%	
O=C(O)c1cccc(Oc2cnc(NC(=O)C(OC3CCOCC3)c3ccc(S(=O)(=O)C4CC4)cc3)s2)c1 (single isomer, unassigned; (+)) [Example G8A, (+)3-[2-[[2-(4-cyclopropylsulfonylphenyl)-2-tetrahydropyran-4-yloxy-acetyl]amino]thiazol-5-yl]oxybenzoic acid]	> 2.5	0.19 µM		
COc1cc(Oc2cnc(NC(=O)C(OC3CCOCC3)c3ccc(S(=O)(=O)C4CC4)cc3)s2)ccc1C(=O)O (single isomer, unassigned; (+)) [Example G9A, (+)4-[2-[[2-(4-cyclopropylsulfonylphenyl)-2-tetrahydropyran-4-yloxy-acetyl]amino]thiazol-5-yl]oxy-2-methoxy-benzoic acid]	> 2.5	0.27 µM	92%	
Cc1ccc(Oc2cnc(NC(=O)C(OC3CCOCC3)c3ccc(S(=O)(=O)C4CC4)cc3)s2)cc1C(=O)O (single isomer, unassigned; (+)) [Example G10A, (+)5-[2-[[2-(4-cyclopropylsulfonylphenyl)-2-tetrahydropyran-4-yloxy-acetyl]amino]thiazol-5-yl]oxy-2-methyl-benzoic acid]	> 2.5	0.23 µM	93%	
O=C(O)c1cc(Oc2cnc(NC(=O)C(OC3CCOCC3)c3ccc(S(=O)(=O)C4CC4)cc3)s2)ccc1F (single isomer, unassigned; (+)) [Example G16A, (+)5-[2-[[2-(4-cyclopropylsulfonylphenyl)-2-tetrahydropyran-4-yloxy-acetyl]amino]thiazol-5-yl]oxy-2-fluoro-benzoic acid]	> 2.5	0.27 µM	93%	
O=C(Nc1ncc(Oc2cccc(CO)c2)s1)C(OC1CCOCC1)c1ccc(S(=O)(=O)C2CC2)cc1 (single isomer, unassigned; (+)) [Example G20A, (+)2-(4-cyclopropylsulfonylphenyl)-N-[5-[3-(hydroxymethyl)phenoxy]thiazol-2-yl]-2-tetrahydro-pyran-4-yloxy-acetamide]	> 2.5	0.064 µM	93%	
O=C(O)c1cccc(Oc2cnc(NC(=O)C(O[C@@H]3CCOC3)c3ccc(S(=O)(=O)C4CC4)cc3)s2)c1 (single isomer, unassigned; (+)) [Example G21A]	> 2.5			
O=C(O)c1cccc(Oc2cnc(NC(=O)C(O[C@H]3CCOC3)c3ccc(S(=O)(=O)C4CC4)cc3)s2)c1 (single isomer, unassigned; (+)) [Example G25A]	> 2.5	0.2 µM	95%	
O=C(O)c1cccc(Oc2cnc(NC(=O)C(OC3CCOCC3)c3ccc(S(=O)(=O)C4CCCC4)cc3)s2)c1 (single isomer, unassigned; (+)) [Example G26A, (+)-3-[2-[[2-(4-cyclopentylsulfonylphenyl)-2-tetrahydropyran-4-yloxy-acetyl]amino]thiazol-5-yl]oxybenzoic acid]	> 2.5	0.18 µM	94%	
O=C(O)c1cccc(Oc2cnc(NC(=O)C(OC3CCOCC3)c3ccc(S(=O)(=O)C4CCCC4)nc3)s2)c1 (single isomer, unassigned; (+)) [Example G27A, (+)-3-[2-[[2-(6-cyclopentylsulfonyl-3-pyridyl)-2-tetrahydropyran-4-yloxy-acetyl]amino]thiazol-5-yl]oxybenzoic acid]	> 2.5	0.13 µM	95%	
O=C(O)c1ccc(NC(=O)C(Oc2ccc(F)cc2F)c2ccc(S(=O)(=O)C3CC3)cc2)nc1 (single isomer, unassigned; (-)) [Example G15A, (−)6-[[2-(4-cyclopropylsulfonylphenyl)-2-(2,4-difluorophenoxy)acetyl]amino]pyridine-3-carboxylic acid]	> 2.5	0.48 µM	90%	
O=C(NC1CC1)c1ccc(Oc2cnc(NC(=O)C(OC3CCOCC3)c3ccc(S(=O)(=O)C4CC4)cc3)s2)cc1 (stereo not shown) [Example C3, N-Cyclopropyl-4-[2-[[2-(4-cyclopropylsulfonylphenyl)-2-tetrahydropyran-4-yloxy-acetyl]amino]thiazol-5-yl]oxy-benzamide]		0.13 µM	94%	
O=C(Nc1ncc(Oc2cccc(CO)c2)s1)C(OC1CCOCC1)c1ccc(S(=O)(=O)C2CC2)cc1 (stereo not shown) [Example D3, 2-(4-cyclopropylsulfonylphenyl)-N-[5-[3-(hydroxymethyl)phenoxy]thiazol-2-yl]-2-tetrahydropyran-4-yloxy-acetamide]		0.14 µM	92%	
O=C(Nc1nc2ccc(C(O)CO)nc2s1)C(OC1CCOCC1)c1ccc(S(=O)(=O)C2CC2)cc1 (stereo not shown) [Example E2, 2-(4-Cyclopropanesulfonyl-phenyl)-N-[5-(1,2-dihydroxy-ethyl)-thiazolo[5,4-b]pyridin-2-yl]-2-(tetrahydro-pyran-4-yloxy)-acetamide]		1.5 µM	93%	
O=C(Nc1ncc(C(O)CO)s1)C(Oc1ccc(F)cc1F)c1ccc(S(=O)(=O)C2CC2)cc1 (stereo not shown) [Example E3, 2-(4-cyclopropylsulfonylphenyl)-2-(2,4-difluorophenoxy)-N-[5-(1,2-dihydroxyethyl)thiazol-2-yl]acetamide]		1.2 µM	88%	
O=C(Nc1ncc(F)s1)[C@H](CC1CCOCC1)c1ccc(S(=O)(=O)C2CC2)cc1 [PSN-GK1]				hypoglycemic potential
Ro-28-1675				cause hypoglycemia
